Data taken from patent US10959432B2, “Microbiocidal oxadiazole derivatives” (Syngenta Participations AG, priority 2016, dated 2021).

Key:
[1] = system: Glomerella laqenarium (Colletotrichum lagenarium); assay: Fungicidal activity against Glomerella lagenarium (Colletotrichum lagenarium) liquid culture / cucumber / preventative (anthracnose); format: cell-based; settings: Colletotrichum orbiculare; 20 ppm in the applied formulation; liquid culture in PDB, 24° C., 3 to 4 days after application; read-out: disease control compared to untreated control (inhibition of growth measured photometrically)
How it was run: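 Test compound, applied from DMSO solution, is combined with PDB containing conidia taken from cryogenic storage. After 3–4 days at 24 °C, growth is measured photometrically and antifungal activity expressed as percent relative to untreated control.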

Phakopsora pachyrhizi = assay: Fungicidal activity against Phakopsora pachyrhizi / soybean / leaf disc preventative (Asian soybean rust); format: in vivo; settings: foliar, 200 ppm in the applied formulation, soybean leaf disks, preventative (inoculated one day after application), assessed 12 to 14 days after application, read-out: disease control compared to untreated control leaf disks
How it was run: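 Preventative test: compound applied to soybean leaf discs a day before spore inoculation of the lower surface. Discs kept at 20° C and 75% rh, first 24-36 h in darkness, then under 12 h light/day; disease control relative to untreated discs rated 12 to 14 days post-application.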

[2] = system: Puccinia recondita f. sp. tritici; assay: Fungicidal activity against Puccinia recondita f. sp. tritici / wheat / leaf disc preventative (brown rust); format: in vivo; settings: foliar, 200 ppm in the applied formulation, wheat leaf segments cv. Kanzler, preventative (inoculated 1 day after application), assessed 7 to 9 days after application, read-out: disease control compared to untreated control leaf disks
How it was run: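 Preventative leaf-segment test: compound sprayed at 200 ppm onto wheat (cv. Kanzler) segments, brown rust spores applied 1 day after. Kept at 19C and 75% rh under 12 h light/dark cycles; disease control versus untreated check read 7 to 9 days post-application.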

[3] = system: Puccinia recondita f. sp. tritici; assay: Fungicidal activity against Puccinia recondita f. sp. tritici / wheat / leaf disc curative (brown rust); format: in vivo; settings: foliar, 200 ppm in the applied formulation, wheat leaf segments cv. Kanzler, curative (applied 1 day after inoculation), assessed 6 to 8 days after application, read-out: disease control compared to untreated control leaf disks
How it was run: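 Curative test: compound, diluted from DMSO stock into water, applied one day after spore inoculation of wheat (cv. Kanzler) leaf segments kept on agar in darkness at 19° C. and 75% RH. Climate-cabinet incubation (19° C., 75% RH, 12 h photoperiod); disease control relative to untreated read 6–8 days post-application.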

CC(C)(C)NC(=O)c1ccc(-c2noc(C(F)(F)F)n2)cc1 [Compound 3a.32, N-tert-butyl-4-[5-(trifluoromethyl)-1,2,4-oxadiazol-3-yl]benzamide]
≥ 80%: inhibition at 20 ppm [1] | pest or weed control at 200 ppm (Phakopsora pachyrhizi) | pest or weed control at 200 ppm [2] | pest or weed control at 200 ppm [3]

C#CCN(C)C(=O)c1ccc(-c2noc(C(F)(F)F)n2)cc1F [Compound 3b.44, 2-fluoro-N-methyl-N-prop-2-ynyl-4-[5-(trifluoromethyl)-1,2,4-oxadiazol-3-yl]benzamide]
≥ 80%: inhibition at 20 ppm [1] | pest or weed control at 200 ppm (Phakopsora pachyrhizi) | pest or weed control at 200 ppm [2] | pest or weed control at 200 ppm [3]

O=C(Nc1nccnn1)c1ccc(-c2noc(C(F)(F)F)n2)cc1 [Compound 5a.8, N-(1,2,4-triazin-3-yl)-4-[5-(trifluoromethyl)-1,2,4-oxadiazol-3-yl]benzamide]
≥ 80%: inhibition at 20 ppm [1] | pest or weed control at 200 ppm (Phakopsora pachyrhizi) | pest or weed control at 200 ppm [2] | pest or weed control at 200 ppm [3]

CCC(O)CNC(=O)c1ccc(-c2noc(C(F)(F)F)n2)cc1F (centres unmarked) [Compound 3b.16, 2-fluoro-N-(2-hydroxybutyl)-4-[5-(trifluoromethyl)-1,2,4-oxadiazol-3-yl]benzamide]
≥ 80%: inhibition at 20 ppm [1] | pest or weed control at 200 ppm (Phakopsora pachyrhizi) | pest or weed control at 200 ppm [2] | pest or weed control at 200 ppm [3]

C=C(C)CN(CC)C(=O)c1ccc(-c2noc(C(F)(F)F)n2)cc1 [Compound 3a.31, N-ethyl-N-(2-methylallyl)-4-[5-(trifluoromethyl)-1,2,4-oxadiazol-3-yl]benzamide]
≥ 80%: inhibition at 20 ppm [1] | pest or weed control at 200 ppm (Phakopsora pachyrhizi) | pest or weed control at 200 ppm [2] | pest or weed control at 200 ppm [3]

CCN(CC)C(=O)c1ccc(-c2noc(C(F)(F)F)n2)cc1F [Compound 3b.32, N,N-diethyl-2-fluoro-4-[5-(trifluoromethyl)-1,2,4-oxadiazol-3-yl]benzamide]
≥ 80%: inhibition at 20 ppm [1] | pest or weed control at 200 ppm (Phakopsora pachyrhizi) | pest or weed control at 200 ppm [2] | pest or weed control at 200 ppm [3]

CCN(C(=O)c1ccc(-c2noc(C(F)(F)F)n2)cc1)C(C)C [Compound 3a.34, N-ethyl-N-isopropyl-4-[5-(trifluoromethyl)-1,2,4-oxadiazol-3-yl]benzamide]
≥ 80%: inhibition at 20 ppm [1] | pest or weed control at 200 ppm (Phakopsora pachyrhizi) | pest or weed control at 200 ppm [2] | pest or weed control at 200 ppm [3]

CCOCCCNC(=O)c1ccc(-c2noc(C(F)(F)F)n2)cc1 [Compound 3a.22, N-(3-ethoxypropyl)-4-[5-(trifluoromethyl)-1,2,4-oxadiazol-3-yl]benzamide]
≥ 80%: inhibition at 20 ppm [1] | pest or weed control at 200 ppm (Phakopsora pachyrhizi) | pest or weed control at 200 ppm [2] | pest or weed control at 200 ppm [3]

CCCN(C)C(=O)c1ccc(-c2noc(C(F)(F)F)n2)cc1 [Compound 3a.33, N-methyl-N-propyl-4-[5-(trifluoromethyl)-1,2,4-oxadiazol-3-yl]benzamide]
≥ 80%: inhibition at 20 ppm [1] | pest or weed control at 200 ppm (Phakopsora pachyrhizi) | pest or weed control at 200 ppm [2] | pest or weed control at 200 ppm [3]

CC(C)CCNC(=O)c1ccc(-c2noc(C(F)(F)F)n2)cc1 [Compound 3a.38, N-isopentyl-4-[5-(trifluoromethyl)-1,2,4-oxadiazol-3-yl]benzamide]
≥ 80%: inhibition at 20 ppm [1] | pest or weed control at 200 ppm (Phakopsora pachyrhizi) | pest or weed control at 200 ppm [2] | pest or weed control at 200 ppm [3]

CCOCCCNC(=O)c1ccc(-c2noc(C(F)(F)F)n2)cc1F [Compound 3b.24, N-(3-ethoxypropyl)-2-fluoro-4-[5-(trifluoromethyl)-1,2,4-oxadiazol-3-yl]benzamide]
≥ 80%: inhibition at 20 ppm [1] | pest or weed control at 200 ppm (Phakopsora pachyrhizi) | pest or weed control at 200 ppm [2] | pest or weed control at 200 ppm [3]
